Measurements published in PubChem BioAssay (NCI).
Values joined by “and” are separate entries in the source; they are usually repeats but may differ in a detail not shown here. Identical values can stand only once.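 The compound was tested at five concentrations on cells cultured in 96-well plates, with a 48-hour exposure period. GI50 is the concentration that inhibits growth by half. TGI marks complete inhibition of growth.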

Tests used:
Assay in all cases: DTP human tumour cell line panel, 48 h
[1] = test system: SNB-19 CNS
[2] = test system: UACC-62 melanoma
[3] = test system: K-562 leukemia
[4] = test system: SW-620 colon
[5] = test system: MALME-3M melanoma
[6] = test system: SK-OV-3 ovarian
[7] = test system: RPMI-8226 leukemia
[8] = test system: HT29 colon
[9] = test system: OVCAR-3 ovarian
[10] = test system: BT-549 breast
[11] = test system: MDA-MB-231 breast
[12] = test system: IGROV1 ovarian
[13] = test system: LOX IMVI melanoma
[14] = test system: NCI/ADR-RES ovarian
[15] = test system: EKVX NSCLC
[16] = test system: SK-MEL-5 melanoma
[17] = test system: SK-MEL-2 melanoma
[18] = test system: ACHN renal
[19] = test system: HOP-62 NSCLC
[20] = test system: OVCAR-8 ovarian
[21] = test system: KM12 colon
[22] = test system: SR leukemia
[23] = test system: MOLT-4 leukemia
[24] = test system: SF-295 CNS
[25] = test system: A498 renal
[26] = test system: U251 CNS
[27] = test system: CAKI-1 renal
[28] = test system: T-47D breast
[29] = test system: HCT-15 colon
[30] = test system: NCI-H226 lung
[31] = test system: DU-145 prostate
[32] = test system: PC-3 prostate
[33] = test system: OVCAR-4 ovarian
[34] = test system: MDA-MB-435
[35] = test system: M14 melanoma
[36] = test system: OVCAR-5 ovarian
[37] = test system: CCRF-CEM leukemia
[38] = test system: NCI-H460 lung
[39] = test system: HOP-92 NSCLC
[40] = test system: HCC-2998 colon
[41] = test system: SN12C renal
[42] = test system: NCI-H23 lung
[43] = test system: NCI-H522 lung
[44] = test system: A549 NSCLC
[45] = test system: TK-10 renal
[46] = test system: COLO 205 colon
[47] = test system: HCT-116 colon
[48] = test system: RXF 393 renal
[49] = test system: UO-31 renal
[50] = test system: MCF7 breast
[51] = test system: SF-539 CNS
[52] = test system: SK-MEL-28 melanoma
[53] = test system: UACC-257 melanoma
[54] = test system: HL-60(TB) leukemia
[55] = test system: HS 578T breast
[56] = test system: SNB-75 CNS
[57] = test system: 786-0 renal
[58] = test system: SF-268 CNS

**Q.** What does the source list for `O=C(NNc1nc2cc(F)c(F)cc2n2cccc12)c1cccnn1`?
**A.** GI50 [1]: 394 nM and 434 nM; TGI [1]: 30 µM and > 100 µM; GI50 [2]: 331 nM and 388 nM; TGI [2]: 2.29 µM and 8.83 µM; GI50 [3]: 374 nM and 323 nM; TGI [3]: 30 µM and 3.78 µM; GI50 [4]: 231 nM and 354 nM; TGI [4]: 30 µM and 60.3 µM; GI50 [5]: 771 nM and 811 nM; TGI [5]: 28.7 µM; GI50 [6]: 300 nM and 326 nM; TGI [6]: 11.4 µM and 17.9 µM; GI50 [7]: 305 nM and 338 nM; TGI [7]: 1.15 µM and 7.72 µM; GI50 [8]: 644 nM and 542 nM; TGI [8]: 30 µM and 29.2 µM; GI50 [9]: 227 nM and 243 nM; TGI [9]: 3.71 µM and 13.2 µM; GI50 [10]: 1400 nM and 271 nM; TGI [10]: 30 µM and 24.8 µM; GI50 [11]: 559 nM and 750 nM; TGI [11]: 30 µM and 54.7 µM; GI50 [12]: 227 nM and 273 nM; TGI [12]: 5.02 µM and 4.69 µM; GI50 [13]: 247 nM and 156 nM; TGI [13]: 1.09 µM and 5.27 µM; GI50 [14]: 205 nM and 207 nM; TGI [14]: 2.88 µM and 3.56 µM; GI50 [15]: 255 nM and 190 nM; TGI [15]: 30 µM and 16.1 µM; GI50 [16]: 491 nM and 271 nM; TGI [16]: 3350 nM and 2000 nM; GI50 [17]: 963 nM and 1490 nM; TGI [17]: 30 µM and 15.5 µM; GI50 [18]: 158 nM and 134 nM; TGI [18]: 8.32 µM and 6.53 µM; GI50 [19]: 275 nM and 99.4 nM; TGI [19]: 9.22 µM and 11.3 µM; GI50 [20]: 322 nM and 269 nM; TGI [20]: 30 µM and > 100 µM; GI50 [21]: 378 nM and 336 nM; TGI [21]: 30 µM and 33.3 µM; GI50 [22]: 175 nM and 48.6 nM; GI50 [23]: 178 nM and 136 nM; GI50 [24]: 202 nM and 97.5 nM; TGI [24]: 5.23 µM and 6.17 µM; GI50 [25]: 614 nM and 382 nM; TGI [25]: 3260 nM and 2450 nM; GI50 [26]: 229 nM and 172 nM; TGI [26]: 30 µM and 36.1 µM; GI50 [27]: 261 nM and 251 nM; TGI [27]: 30 µM and 11.2 µM; GI50 [28]: 838 nM and 293 nM; TGI [28]: 24.5 µM and 9.75 µM; GI50 [29]: 123 nM and 46.8 nM; TGI [29]: 30 µM and 38.3 µM; GI50 [30]: 387 nM and 643 nM; TGI [30]: 14.7 µM and 12.1 µM; GI50 [31]: 346 nM and 579 nM; TGI [31]: 30 µM and 16.1 µM; GI50 [32]: 201 nM and 419 nM; GI50 [33]: 209 nM and 201 nM; TGI [33]: 30 µM and > 100 µM; GI50 [34]: 1160 nM and 811 nM; TGI [34]: 30 µM and 19.9 µM; GI50 [35]: 309 nM and 197 nM; TGI [35]: 30 µM and 11.5 µM; GI50 [36]: 693 nM and 2310 nM; TGI [36]: 30 µM and 32.3 µM; GI50 [37]: 76.5 nM; TGI [37]: 1010 nM; GI50 [38]: 134 nM and 81 nM; TGI [38]: 3650 nM and 1960 nM; GI50 [39]: 398 nM; TGI [39]: 8.82 µM; GI50 [40]: 589 nM and 474 nM; TGI [40]: 30 µM and 19.5 µM; GI50 [41]: 468 nM and 646 nM; TGI [41]: 30 µM and 31.4 µM; GI50 [42]: 654 nM; TGI [42]: 50.8 µM; GI50 [43]: 747 nM and 262 nM; GI50 [44]: 316 nM and 249 nM; TGI [44]: 30 µM and 15 µM; GI50 [45]: 263 nM and 294 nM; TGI [45]: 30 µM and 29 µM; GI50 [46]: 384 nM and 321 nM; TGI [46]: 30 µM and 19.1 µM; GI50 [47]: 207 nM and 173 nM; TGI [47]: 30 µM and 11.9 µM; GI50 [48]: 700 nM and 245 nM; TGI [48]: 4.13 µM and 13.2 µM; GI50 [49]: 105 nM and 41.4 nM; TGI [49]: 3.97 µM and 2.34 µM; GI50 [50]: 408 nM and 304 nM; TGI [50]: 4.31 µM and 2.83 µM; GI50 [51]: 349 nM and 339 nM; TGI [51]: 9.18 µM and 8.1 µM; GI50 [52]: 504 nM and 515 nM; TGI [52]: 30 µM and 22.4 µM; GI50 [53]: 802 nM and 364 nM; TGI [53]: 2.89 µM and 11 µM; GI50 [54]: 570 nM and 231 nM; GI50 [55]: 1400 nM and 1040 nM; TGI [55]: 30 µM and 79 µM; GI50 [56]: 267 nM and 1910 nM; TGI [56]: 22 µM and 25.4 µM; GI50 [57]: 669 nM and 296 nM; TGI [57]: 30 µM and 12.9 µM; GI50 [58]: 364 nM and 274 nM; TGI [58]: 30 µM and > 100 µM
